# Data: US20190359560A1, “ANTI-INFLAMMATORY DRUG AND USES THEREOF” (KYUSHU UNIVERSITY, NATIONAL UNIVERSITY CORPORATION, priority 2015, published 2019)
# Legend:
# Bmal1 promoter = Bmal1 promoter luciferase assay in MEF cell line; assay type: cell-based; conditions: MEF reporter cell line, 10 μM, 24 hours
# Experimental: Therefore, in order to exclude compounds having an effect on clock genes in normal cells, studies were conducted using the MEF cell line stably expressing an expression cassette in which a luciferase gene was ligated to the downstream side of the Bmal1 promoter.
# [1] = test system: nuclear receptor RARα mRNA; test: RARα mRNA expression in Hepa1-6 cells (qRT-PCR); assay type: cell-based, mouse; conditions: 10 μM, 24 hours
# G0S2 mRNA = G0S2 mRNA in liver of normal mice; assay type: in vivo, mouse; conditions: normal ICR male mice, 15 mg/kg subcutaneous
# Experimental: An effect of Compound No. 2 with a lower IC50 value on the expression level of G0S2 mRNA in the liver of normal mice was examined. Compound No. 2 was subcutaneously administered on the dorsal region of ICR male mice at a dose of 15 mg/kg. The expression level of G0S2 mRNA in the liver at 30 minutes, 1, 2, 4, 6, 12, and 24 hours after the administration of Compound No. 2 was measured.
# G0S2 protein [2] = test: G0S2 protein in liver of normal mice; assay type: in vivo, mouse; conditions: normal ICR male mice, 15 mg/kg subcutaneous, 4 hours and 6 hours after administration
# Ccl2 mRNA [3] = test: Ccl2 mRNA in Hepa1-6 cells exposed to LPS or TNFα; assay type: cell-based, mouse; conditions: 10 μM, 12 hours
# Experimental: (§1) Next, whether or not Compound No. 2 whose effect in vivo was confirmed has an effect to antagonize the activation of an inflammatory signal was examined. Hepa1-6 cells were exposed to Compound No. 2 at a dose of 10 μM simultaneously with exposure to lipopolysaccharide (LPS) or TNFα which activates NF-κB for which the G0S2 protein acts as a regulator. As shown in FIGS. 10A and 10B, the cells were recovered 12 hours after the exposure and the expression level of Ccl2 mRNA was measured. […] In addition, 25 μg of LPS was administered to the tail vein of a mouse to thereby construct a hepatitis model. 30 minutes after the administration of LPS, Compound No. 2 (5 mg/kg) was administered to the tail vein of the mouse, and the liver was sampled at 6 hours.
# Ccl2 mRNA [4] = test: LPS hepatitis model mouse: Ccl2 mRNA in liver; assay type: in vivo
# Experimental: as §1
# LPS (10 μg/mouse) was administered to ICR male mice by tail vein injection to prepare an LPS-administered group. […]
# In addition, for the liver of mice of each group, the expression level of mRNA of Ccl2, which is a target gene of NF-κB, was quantified by real-time PCR. FIG. 11C is a graph showing the quantitative results of the expression level of mRNA of Ccl2.
# 10 μg of LPS was intraperitoneally administered to mice to construct a hepatitis model. […] 5 hours after the administration of each compound, the liver was harvested from each mouse and the expression level of Ccl2 was quantified by real-time PCR.
# G0S2 protein [5] = test: LPS-administered mice: G0S2 protein in liver (Western blotting); assay type: in vivo; conditions: LPS 10 μg/mouse tail vein; 5 mg/kg subcutaneous 1 hour after LPS; liver 5 hours later; vs LPS group
# Experimental: (§2) LPS (10 μg/mouse) was administered to ICR male mice by tail vein injection to prepare an LPS-administered group. In addition, a mouse to which physiological saline was administered instead of LPS was prepared and used as a control group. Subsequently, the LPS-administered group was divided into two groups, in which 1 hour after the administration of LPS, Compound No. 2 was subcutaneously administered at a dose of 5 mg/kg to the dorsal region of mice of one group which was then served as an LPS+No. 2-administered group. Subsequently, 5 hours after the administration of Compound No. 2, mice of each group were sacrificed and the liver was harvested.
# Subsequently, the expression level of the G0S2 protein in the liver of mice of each group obtained was quantified by Western blotting. FIG. 11A is a graph showing the quantitative results of the G0S2 protein.
# p65 protein (NF-κB) = test: LPS-administered mice: nuclear abundance of p65 protein in liver (Western blotting); assay type: in vivo; conditions: LPS 10 μg/mouse tail vein; 5 mg/kg subcutaneous 1 hour after LPS; liver 5 hours later; vs LPS group
# Experimental: as §2
# For the liver of mice of each group, the nuclear abundance of the p65 protein, which is one of the constituent proteins of NF-κB, was quantified by Western blotting. FIG. 11B is a graph showing the quantitative results of the p65 protein.
# [6] = test system: neuropathic pain model mouse; test: Neuropathic pain model constructed by cancer transplantation; assay type: in vivo; conditions: tumor-bearing mice 2 weeks after cancer transplantation, 15 mg/kg subcutaneous, at 4, 6 and 8 hours
# Experimental: The neuropathic pain model constructed by cancer transplantation activates NF-κB. Therefore, a dose of 15 mg/kg of Compound No. 2 was subcutaneously administered to a model mouse in which the […] was carried out at 2 weeks after cancer transplantation and the pain intensity was measured to confirm that pain was induced.
# [7] = Blood and liver concentration after oral administration (LC/MS/MS); assay type: in vivo, mouse; conditions: mice, 15 mg/kg oral
# Experimental: Compound No. 2 (15 mg/kg) was orally administered to mice. Blood was collected at 0 minutes, 5 minutes, 15 minutes, 30 minutes, 1 hour, 2 hours, 4 hours, 6 hours and 12 hours after the administration of Compound No. 2 and the blood concentration of the compound was measured by LC/MS/MS. In addition, the liver was harvested at 0 minutes, 5 minutes, 15 minutes, 30 minutes, 1 hour and 6 hours after the administration of Compound No. 2, and the liver concentration of the compound was measured by LC/MS/MS.
# [8] = test system: G0S2 transcriptional activity regulatory region; test: Luciferase assay with G0S2 transcriptional activity regulatory regions of each length in NIH3T3 cells; assay type: cell-based, mouse; conditions: NIH3T3 stable cells, 10 μM, 24 hours
# Experimental: Subsequently, these expression vectors were transfected into NIH3T3 cells, which are mouse fibroblast cells, to construct cells stably expressing luciferase.
# Subsequently, Compound No. 2 or DMSO (control) at a final concentration of 10 μM was added to the medium of each cell. Subsequently, the cells were recovered after 24 hours and the luciferase activity was measured.
# STAT5 protein = test: Nuclear abundance of STAT5 protein in NIH3T3 cells (Western blotting); assay type: cell-based, mouse; conditions: NIH3T3 cells, 2.5, 5 and 10 μM, 24 hours, vs control
# Experimental: Compound No. 2 or DMSO (control) at final concentrations of 2.5, 5 and 10 μM was added to the medium of NIH3T3 cells, which are mouse fibroblasts. Subsequently, the cells were recovered after 24 hours, the nuclear protein was prepared, and the abundance of the STAT5 protein was measured by Western blotting.
smiles,measurement,setting,value
CCCCCCNC(=N)NCc1ccccc1 [Compound No. 2],Bmal1 promoter activity,Bmal1 promoter,no significant change
same,expression level of nuclear receptor RARα mRNA,[1],no change
same,expression level of G0S2 mRNA in the liver,G0S2 mRNA; 2 hours and 12 hours,significantly decreased
same,expression level of G0S2 mRNA in the liver,G0S2 mRNA; 4 hours after administration,tended to decrease to about half
same,expression level of G0S2 protein in the liver,G0S2 protein [2],significant decrease
same,expression of Ccl2 mRNA increased by LPS,Ccl2 mRNA [3]; LPS 100 ng/mL,significantly inhibited
same,expression of Ccl2 mRNA increased by TNFα,Ccl2 mRNA [3]; TNFα 200 ng/mL,significantly inhibited
same,expression level of Ccl2 mRNA in the liver,"Ccl2 mRNA [4]; LPS 10 μg/mouse tail vein, 5 mg/kg subcutaneous 1 hour after LPS, liver 5 hours later, vs LPS group",significantly decreased
same,expression of Ccl2 mRNA in the liver,"Ccl2 mRNA [4]; LPS 25 μg tail vein, compound 5 mg/kg tail vein 30 minutes after LPS, liver at 6 hours",significantly inhibited
same,expression of G0S2 protein in the liver,G0S2 protein [5],significantly inhibited
same,nuclear abundance of the p65 protein in the liver,p65 protein (NF-κB),significantly decreased
same,pain intensity (PWT) over time,[6],significantly relieved
same,time after administration at which concentration in blood was highest,[7],15 min
same,time after administration at which concentration in liver was highest,[7],5 min
same,effect of inhibiting the expression of luciferase when the STAT5/6 binding region disappears,[8],decreased
same,nuclear abundance of the STAT5 protein,STAT5 protein,decreased in a dose-dependent manner
